Measurements reported in PubChem BioAssay (NCI).
Where “and” joins values, the source holds several entries; their conditions need not be identical. Equal values may be shown once.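 These data come from cells grown in 96-well plates and exposed to compound for 48 hours at five concentrations. Abbreviation: GI50, concentration required for 50% inhibition of growth. TGI marks complete inhibition of growth.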

Columns and labels:
Assay in all cases: NCI tumour cell line growth inhibition, 48 h
A498 renal = test system: A498 renal
MCF7 breast = test system: MCF7 breast
MDA-MB-435 = test system: MDA-MB-435
RXF 393 renal = test system: RXF 393 renal
SN12C renal = test system: SN12C renal
SNB-19 CNS = test system: SNB-19 CNS
HCT-116 colon = test system: HCT-116 colon
HOP-92 NSCLC = test system: HOP-92 NSCLC
OVCAR-4 ovarian = test system: OVCAR-4 ovarian
MALME-3M melanoma = test system: MALME-3M melanoma

| Compound | GI50 (A498 renal) [µM] | TGI (A498 renal) | GI50 (MCF7 breast) [µM] | TGI (MCF7 breast) | GI50 (MDA-MB-435) | TGI (MDA-MB-435) | GI50 (RXF 393 renal) [µM] | TGI (RXF 393 renal) [µM] | GI50 (SN12C renal) [µM] | TGI (SN12C renal) | GI50 (SNB-19 CNS) [µM] | TGI (SNB-19 CNS) | TGI (HCT-116 colon) | TGI (HOP-92 NSCLC) | TGI (OVCAR-4 ovarian) | GI50 (HCT-116 colon) [µM] | GI50 (HOP-92 NSCLC) [µM] | GI50 (MALME-3M melanoma) [µM] | TGI (MALME-3M melanoma) | GI50 (OVCAR-4 ovarian) [µM] |
| --- | --- | --- | --- | --- | --- | --- | --- | --- | --- | --- | --- | --- | --- | --- | --- | --- | --- | --- | --- | --- |
| CCCCCCN1C(=O)/C(=c2\sc3n(c2=O)C2C(NN=3)N(CC)C(=O)N2CC)c2ccccc21 (stereo unspecified) | 0.706 | 2.37 µM | 1.73 | > 50 µM | 0.972 µM | 2.16 µM | 1.2 | 3.98 | 2.74 | > 50 µM | 3.03 | > 50 µM | – | – | – | – | – | – | – | – |
| CC(=O)/C=C1/c2ccccc2N(C(C)=O)C1O (stereo unspecified) | – | > 100 µM | – | – | – | – | – | > 100 | – | > 100 µM | – | > 100 µM | > 100 µM | > 100 µM | > 100 µM | – | – | – | – | – |
| COC(=O)Nc1ccc2ccc3c(NC(=O)OC)ccc4ccc1c2c43 (tested in a mixture with another compound) | 8.26 | > 50 µM | 27.1 | > 50 µM | – | – | 7.3 | 20.5 | 18.9 | > 50 µM | 13.1 | > 50 µM | > 50 µM | 14.1 µM | > 50 µM | 5.43 | 1.62 | 7.43 | > 50 µM | 15.7 |
| CCCCCCC(C)CC(CCCCCC)NCCOC(=O)c1ccc([N+](=O)[O-])cc1 (stereo unspecified) | – | 34 µM and 34.8 µM | – | 28.3 µM and 21 µM | 11.6 µM and 5.17 µM | 24.9 µM and 20.1 µM | – | – | – | 25.2 µM and 23.8 µM | – | 32.2 µM and 32.5 µM | 28.1 µM and 24.1 µM | 23.9 µM and 23 µM | 26.5 µM and 26.9 µM | – | – | – | 28 µM and 25.7 µM | – |
| Clc1nc(Cl)c2ncn(C/C=C\Cn3cnc4c(Cl)nc(Cl)nc43)c2n1 | 1.51 | 3.23 µM | 1.39 | 3.21 µM | 1.88 µM | 3.77 µM | 2.18 | 4.35 | 3.01 | 9.71 µM | 3.13 | 10.1 µM | 3.26 µM | – | 3.26 µM | 1.48 | – | 2.34 | 4.26 µM | 1.79 |
| CCCOc1ccc(/C=C\c2cc(OC)c(OC)c(OC)c2)cc1 | – | > 100 µM | – | – | – | – | – | > 100 | – | > 100 µM | – | > 100 µM | > 100 µM | > 100 µM | > 100 µM | – | – | – | > 100 µM | – |
| Cc1cc2c(cn1)C(=O)OCC2 | – | > 100 µM | – | – | – | – | – | > 100 | – | > 100 µM | – | > 100 µM | > 100 µM | – | > 100 µM | – | – | – | > 100 µM | – |
| CCCOc1ccc(/C=C/c2cc(OC)c(OC)c(OC)c2)cc1 | – | > 22.6 µM | – | – | – | – | – | 0.904 | – | > 74 µM | – | > 100 µM | > 33.3 µM | 7.41 µM | > 72.9 µM | – | – | – | 84.8 µM | – |
| CCOC(=O)/C(C#N)=C(O)/C(=C/c1ccccc1Cl)NC(=O)c1ccccc1 | – | > 100 µM | – | – | – | – | – | – | – | > 100 µM | – | > 100 µM | > 100 µM | > 100 µM | > 100 µM | – | – | – | > 100 µM | – |
| CN1C(c2ccccc2)CC(=Nc2ccccc2)CC1c1ccccc1 (stereo unspecified) | – | – | – | – | – | – | – | 31.4 | – | – | – | 27.8 µM | 16.4 µM | 22 µM | 31 µM | – | – | – | 22.9 µM | – |
